According to ChEMBL document CHEMBL1157694, “Synthesis of a new cytotoxic cephalostatin/ritterazine analogue from hecogenin and 22-epi-hippuristanol” (2010):

How the values were obtained:
Assay type in all cases: functional
[1] = tested on: MDA-MB-231; experiment: Growth inhibition of human MDA-MB-231 cells after 72 hrs by sulforhodamine B assay; conditions: MDA-MB-231, 72 h
[2] = tested on: A549; experiment: Growth inhibition of human A549 cells after 72 hrs by sulforhodamine B assay; conditions: A549, 72 h
[3] = tested on: HT-29; experiment: Growth inhibition of human HT-29 cells after 72 hrs by sulforhodamine B assay; conditions: HT-29, 72 h

GI50 [1] [µM] | GI50 [2] [µM] | GI50 [3] [µM] | Structure (SMILES)
2.6 | 1.7 | 2.1 | C[C@H]1CC[C@@]2(OC1)O[C@H]1C[C@H]3[C@@H]4CC[C@H]5Cc6nc7c(nc6C[C@]5(C)[C@H]4CC(=O)[C@]3(C)[C@H]1[C@@H]2C)C[C@@H]1CC[C@@H]2[C@H](CC(=O)[C@]3(C)[C@@H]4[C@H](C[C@@H]23)O[C@]2(CC[C@H](C)CO2)[C@H]4C)[C@@]1(C)C7
2 | 1.6 | 1.6 | C[C@H]1CC[C@@]2(OC1)O[C@H]1C[C@H]3[C@@H]4CC[C@H]5Cc6nc7c(nc6C[C@]5(C)[C@H]4CC(=O)[C@]3(C)[C@H]1[C@@H]2C)C[C@@H]1CC[C@H]2[C@@H]3C[C@@H]4O[C@]5(C[C@H](C)C(C)(C)O5)[C@](C)(O)[C@@H]4[C@@]3(C)CC(=O)[C@@H]2[C@@]1(C)C7

Structure (SMILES) | GI50 [1] [µM] | GI50 [2] [µM] | GI50 [3] [µM]
C[C@H]1C[C@]2(O[C@H]3C[C@H]4[C@@H]5CC[C@H]6C[C@H](O)CC[C@]6(C)[C@H]5[C@@H](O)C[C@]4(C)[C@H]3[C@@]2(C)O)OC1(C)C [EPIHIPPURISTANOL] | 5.6 | 3.2 | 4.5
